For orientation: MIC means the smallest concentration in the dilution series that meets the test's criterion for growth inhibition.

Experiment [1] deals with Septoria tritici (ATCC 26517). As to the kind of experiment: Minimum Inhibitory Concentration (MIC) (Septoria tritici), CLSI-based microdilution. The experiment is classed as cell-based. Conditions: Zymoseptoria tritici, ATCC26517, 168 h, S. tritici ATCC 26517; 22° C. for seven days; 50% reduction in growth; read-out: Septoria Rating (MIC). The gist of the method:
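S. tritici (ATCC 26517) tested by CLSI-style broth microdilution for filamentous fungi in RPMI-1640/MOPS, 2-fold series 16–0.016 μg/mL (11 concentrations, 2% DMSO before inoculum), duplicate rows. Inoculum ~5×10^4 cfu/mL; plates incubated 7 days at 22 °C in the dark, static; growth scored on a rating scale.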
(In general: Dilution methods test growth across graded concentrations, often in twofold steps.)

The next experiment relates to C. albicans. Description: Minimum Inhibitory Concentration (MIC) (C. albicans), CLSI M27-A2. The experiment is classed as cell-based. Conditions: Candida albicans; approximately 48 h at 35±1° C.; about 50% growth reduction. As to the method:
A. Minimum Inhibitory Concentration (MIC) (C. albicans) Compounds of the present disclosure were assessed for their ability to inhibit the growth of common strains of fungus, C. albicans using a standardized procedure (CLSI M27-A2). Stock solutions of the test compounds and standards were prepared in DMSO at 1,600 μg/mL (C. albicans). Eleven, serial, one-half dilutions of compounds were prepared in 96-well plates in RPMI+MOPS. The assay concentration ranges were 8-0.001 μg/mL (C. albicans). Cell suspensions of C. albicans were prepared and added to each well at concentrations of approximately 3.7×10^3 colony-forming-units per milliliter (cfu/mL). All testing was in duplicate. The inoculated plates were incubated for approximately 48 h at 35±1° C. At the completion of incubation the wells of each plate were evaluated visually for the presence of fungal growth. […] For QC purposes C. krusei isolate ATCC 6258 (4.0×10^3 cfu/mL) was included in the VOR assay.

The subject of experiment [2] is Puccinia recondita tritici = Puccinia triticina. Description: Fungicidal activity vs. leaf rust on wheat plants. The experiment is classed as in vivo. Conditions: wheat (variety Yuma) sprayed at 50 ppm, inoculated on the following day, evaluated 7-9 days later; read-out: Puccinia Rating (% Disease Control @ 50 ppm). The text has this: D. Evaluation of Fungicidal Activity Vs. Leaf Rust (Causal Agent Puccinia recondita tritici=Puccinia triticina; Bayer Code PUCCRT). […] Each pot contained 3-8 seedlings. These plants were sprayed until wet with the formulated test compounds. The compounds were formulated at 50 ppm in 10 vol. % acetone plus 90 vol. % Triton X water (deionized water 99.99 wt %+0.01 wt % Triton X100), giving a “formulated test compound.” Formulated test compounds were applied to plants using a turn table sprayer fitted with two opposing air atomization nozzles which delivered approximately 1500 L/ha of spray volume. On the following day, the leaves were inoculated with an aqueous spore suspension of Puccinia recondita tritici and the plants were kept in high humidity overnight to permit spores to germinate and infect the leaf. The plants were then transferred to a greenhouse until disease developed on untreated control plants. Disease severity was evaluated 7-9 days later, depending on the speed of disease development. In each case of Table 3, the Puccinia rating scale is as follows: […]

In brackets after ≈: the same amount, converted by molar mass.

For the compound `CCOC(=O)/C=C/c1ccc(C(F)(F)C(O)(Cn2cnnn2)c2ccc(F)cc2F)nc1` (centres unmarked) [Compound 4, (E)-Ethyl 3-(6-(2-(2,4-difluorophenyl)-1,1-difluoro-2-hydroxy-3-(1H-tetrazol-1-yl)propyl)pyridin-3-yl)acrylate], the minimum inhibitory concentration (MIC) in experiment [1] is no more than 0.5 µg/mL; in the experiment with C. albicans, no more than 0.016 µg/mL.
`OC(Cn1cnnn1)(c1ccc(F)cc1F)C(F)(F)c1ccc(/C=C/COCC(F)(F)F)cn1` (centres unmarked) [Compound 6, (E)-2-(2,4-Difluorophenyl)-1,1-difluoro-3-(1H-tetrazol-1-yl)-1-(5-(3-(2,2,2-trifluoroethoxy)prop-1-en-1-yl)pyridin-2-yl)propan-2-ol]: the MIC was no more than 0.5 µg/mL in experiment [1] and no more than 0.016 µg/mL against C. albicans. For the same compound, the pest or weed control at 50 ppm in experiment [2] is less than 40%.
Regarding `OC(Cn1cnnn1)(c1ccc(F)cc1F)C(F)(F)c1ccc(-c2ccc(Cl)nc2)cn1` (centres unmarked) [Compound 30, 1-(6′-Chloro-[3,3′-bipyridin]-6-yl)-2-(2,4-difluorophenyl)-1,1-difluoro-3-(1H-tetrazol-1-yl)propan-2-ol], the pest or weed control at 50 ppm in experiment [2] fell in the range of 80 to 100%. In the experiment with C. albicans, this compound came in with an MIC of 0.062 µg/mL (≈ 0.133 µM).
Turning to `OC(Cn1cnnn1)(c1ccc(F)cc1F)C(F)(F)c1ccc(Cc2ccc(Cl)cc2)cn1` (centres unmarked) [Compound 77, 1-(5-(4-Chlorobenzyl)pyridin-2-yl)-2-(2,4-difluorophenyl)-1,1-difluoro-3-(1H-tetrazol-1-yl)propan-2-ol], in experiment [1], the minimal inhibitory concentration (MIC) was no more than 0.5 µg/mL. Moreover, the pest or weed control at 50 ppm in experiment [2] was in the range of 80 to 100%.
The matching figures for `N#Cc1ccc(OCc2ccc(C(F)(F)C(O)(Cn3cnnn3)c3ccc(F)cc3F)nc2)cc1` (centres unmarked) [Compound 79, 4-((6-(2-(2,4-Difluorophenyl)-1,1-difluoro-2-hydroxy-3-(1H-tetrazol-1-yl)propyl)pyridin-3-yl)methoxy)benzonitrile]: no more than 0.5 µg/mL and 80 to 100%.
The matching figures for `OC(Cc1cnco1)(c1ccc(F)cc1F)C(F)(F)c1ccc(Br)cn1` (centres unmarked) [Compound 83, 1-(5-Bromopyridin-2-yl)-2-(2,4-difluorophenyl)-1,1-difluoro-3-(oxazol-5-yl)propan-2-ol]: no more than 0.5 µg/mL and 80 to 100%.
The matching figures for `N#Cc1ccc(OCc2ccc(C(F)(F)C(O)(Cn3cnnn3)c3ccc(F)cc3F)nc2)c(F)c1` (centres unmarked) [Compound 88, 4-((6-(2-(2,4-difluorophenyl)-1,1-difluoro-2-hydroxy-3-(1H-tetrazol-1-yl)propyl)pyridin-3-yl)methoxy)-3-fluorobenzonitrile]: no more than 0.5 µg/mL and 80 to 100%.
In the case of `N#Cc1cccc(OCc2ccc(C(F)(F)C(O)(Cn3cnnn3)c3ccc(F)cc3F)nc2)c1F` (centres unmarked) [Compound 89, 3-((6-(2-(2,4-difluorophenyl)-1,1-difluoro-2-hydroxy-3-(1H-tetrazol-1-yl)propyl)pyridin-3-yl)methoxy)-2-fluorobenzonitrile], the minimum inhibitory concentration (MIC) in experiment [1] is no more than 0.5 µg/mL. Besides, the pest or weed control at 50 ppm in experiment [2] was 80 to 100%.
For `N#Cc1ccc(SCc2ccc(C(F)(F)C(O)(Cn3cnnn3)c3ccc(F)cc3F)nc2)c(F)c1` (centres unmarked) [Compound 90, 4-(((6-(2-(2,4-difluorophenyl)-1,1-difluoro-2-hydroxy-3-(1H-tetrazol-1-yl)propyl)pyridin-3-yl)methyl)thio)-3-fluorobenzonitrile], the minimum inhibitory concentration (MIC) in experiment [1] came out at 1.5 µg/mL (≈ 2.89 µM). For the same compound, in experiment [2], the pest or weed control at 50 ppm was in the range of 40 to 59%.
The matching figures for `OC(Cn1cnnn1)(c1ccc(F)cc1F)C(F)(F)c1ccc(COC(F)F)cn1` (centres unmarked) [Compound 92, 1-(5-((difluoromethoxy)methyl)pyridin-2-yl)-2-(2,4-difluorophenyl)-1,1-difluoro-3-(1H-tetrazol-1-yl)propan-2-ol]: no more than 0.5 µg/mL and 80 to 100%.
The matching figures for `OC(Cn1cnnn1)(c1ccc(F)cc1F)C(F)(F)c1ccc(-c2ccc(Cl)cn2)cn1` (centres unmarked) [Compound 93, 1-(5-chloro-[2,3′-bipyridin]-6′-yl)-2-(2,4-difluorophenyl)-1,1-difluoro-3-(1H-tetrazol-1-yl)propan-2-ol]: no more than 0.5 µg/mL and 80 to 100%.
With `OC(Cn1cnnn1)(c1ccc(F)cc1F)C(F)(F)c1ccc(-c2ccc(C(F)(F)F)cn2)cn1` (centres unmarked) [Compound 94, 2-(2,4-difluorophenyl)-1,1-difluoro-3-(1H-tetrazol-1-yl)-1-(5-(trifluoromethyl)-[2,3′-bipyridin]-6′-yl)propan-2-ol], in experiment [1], the MIC was no more than 0.5 µg/mL. The pest or weed control at 50 ppm in experiment [2] fell in the range of 80 to 100%.
The matching figures for `N#Cc1ccc(-c2ccc(C(F)(F)C(O)(Cn3cnnn3)c3ccc(F)cc3F)nc2)nc1` (centres unmarked) [Compound 95, 6′-(2-(2,4-difluorophenyl)-1,1-difluoro-2-hydroxy-3-(1H-tetrazol-1-yl)propyl)-[2,3′-bipyridine]-5-carbonitrile]: 1.5 to 4 µg/mL (≈ 3.29 to 8.78 µM) and 80 to 100%.
Regarding `OC(Cn1cnnn1)(c1ccc(F)cc1F)C(F)(F)c1ccc(-c2ccncc2)cn1` (centres unmarked) [Compound 96, 1-([3,4′-bipyridin]-6-yl)-2-(2,4-difluorophenyl)-1,1-difluoro-3-(1H-tetrazol-1-yl)propan-2-ol], the MIC in experiment [1] was in the range of 1.5 to 4 µg/mL (≈ 3.49 to 9.29 µM). Further, in experiment [2], the pest or weed control at 50 ppm is 60 to 79%.
The matching figures for `N#Cc1ccc(OCc2ccc(C(F)(F)C(O)(Cn3cnnn3)c3ccc(F)cc3F)nc2)nc1` (centres unmarked) [Compound 98, 6-((6-(2-(2,4-difluorophenyl)-1,1-difluoro-2-hydroxy-3-(1H-tetrazol-1-yl)propyl)pyridin-3-yl)methoxy)nicotinonitrile]: no more than 0.5 µg/mL and 80 to 100%.
The matching figures for `OC(Cn1cnnn1)(c1ccc(F)cc1F)C(F)(F)c1ccc(COc2ccc(C(F)(F)F)cn2)cn1` (centres unmarked) [Compound 99, 2-(2,4-difluorophenyl)-1,1-difluoro-3-(1H-tetrazol-1-yl)-1-(5-(((5-(trifluoromethyl)pyridin-2-yl)oxy)methyl)pyridin-2-yl)propan-2-ol]: no more than 0.5 µg/mL and 80 to 100%.
The matching figures for `OC(Cn1cnnn1)(c1ccc(F)cc1F)C(F)(F)c1ccc(COc2ncc(C(F)(F)F)cc2Cl)cn1` (centres unmarked) [Compound 100]: no more than 0.5 µg/mL and 80 to 100%.
For `OC(Cn1cnnn1)(c1ccc(F)cc1F)C(F)(F)c1ccc(C(F)(F)c2ccc(F)cc2)cn1` (centres unmarked) [Compound 101, 1-(5-(difluoro(4-fluorophenyl)methyl)pyridin-2-yl)-2-(2,4-difluorophenyl)-1,1-difluoro-3-(1H-tetrazol-1-yl)propan-2-ol], the MIC in experiment [1] was in the range of 1.5 to 4 µg/mL (≈ 3.02 to 8.04 µM). Also, the pest or weed control at 50 ppm in experiment [2] was in the range of 80 to 100%.
`OC(Cn1cnnn1)(c1ccc(F)cc1F)C(F)(F)c1ccc(C(F)(F)c2ccc(C(F)(F)F)cc2)cn1` (centres unmarked) [Compound 102, 1-(5-(difluoro(4-(trifluoromethyl)phenyl)methyl)pyridin-2-yl)-2-(2,4-difluorophenyl)-1,1-difluoro-3-(1H-tetrazol-1-yl)propan-2-ol]: the minimal inhibitory concentration (MIC) in experiment [1] lay in the range of 1.5 to 4 µg/mL (≈ 2.74 to 7.31 µM). Also, in experiment [2], the pest or weed control at 50 ppm lay in the range of 80 to 100%.
Turning to `N#Cc1ccc(C(F)(F)c2ccc(C(F)(F)C(O)(Cn3cnnn3)c3ccc(F)cc3F)nc2)cc1` (centres unmarked) [Compound 103, 4-((6-(2-(2,4-difluorophenyl)-1,1-difluoro-2-hydroxy-3-(1H-tetrazol-1-yl)propyl)pyridin-3-yl)difluoromethyl)benzonitrile], the MIC in experiment [1] was 1.5 to 4 µg/mL (≈ 2.97 to 7.93 µM). For the same compound, the pest or weed control at 50 ppm in experiment [2] fell in the range of 80 to 100%.

(Values after patent publication US9221791B2, “Metalloenzyme inhibitor compounds” (Viamet Pharmaceuticals, Inc., priority 2011, dated 2015).)
